Measurements as given in US10463735B2, “Method and apparatus for adjusting corneal curvature through digital corneal crosslinking” (ZHEJIANG UNIVERSITY, priority 2016, dated 2019).

Tested on: cornea
Assay: Digital corneal crosslinking: photoinitiator solution dropped on the cornea, then selective local irradiation through a digital micromirror device
Assay type: in vivo
Protocol: A digital corneal crosslinking method to adjust the corneal curvature wherein a composition comprising a photoinitiator compound is administered to the corneal stromal of the subject, and the corneal is selectively and locally irradiated by utilizing digital micromirror device (DMD) controlled by a computer, whereby the corneal curvature is altered.
(§1) The epithelial tissue of an area of 7 mm diameter in the middle of the cornea was removed after superficial anesthesia. A dextran solution of 200 g/L with 1 g/L riboflavin was dropped to corneal surface in batches. The location of the riboflavin diffused into the corneal surface was observed by cobalt blue light of a slit lamp. Digital corneal crosslinking device was used to selectively irradiate the local area of the cornea. The light's wavelength is 365 nm, the irradiation area is shown in FIG. 2, the light power is 1.2 mW/cm^2, irradiation time is 5 minutes.
During irradiation process, a photoinitiator solution and superficial anesthesia were used to wash the corneal surface in phases. Antibiotic eye formulations were applied to the eye and corneal contact lens were used until the corneal epithelium was healed.
The epithelial tissue of an area of 7 mm diameter in the middle of the cornea was removed after superficial anesthesia. A dextran solution of 200 g/L with 1 g/L riboflavin sodium phosphate was dropped to corneal surface in batches. The location of the riboflavin diffused into the corneal surface was observed by cobalt blue light of a slit lamp. Digital corneal crosslinking device was used to selectively irradiate the local area of the cornea. The light's wavelength is 365 nm, the irradiation area is the same like that in example 1, the light power is 1.2 mW/cm^2, irradiation time is 5 minutes.
as §1, with “of 5-9” for “of 7”, “g/L eosin Y” for “g/L riboflavin”, “the eosin Y” for “the riboflavin”, “is 550” for “is 365”, “FIG. 3,” for “FIG. 2,”
During irradiation process, the eosin Y solution and superficial anesthesia were used to wash the corneal surface in phases. Antibiotic eye formulations were applied to the eye and corneal contact lens were used until the corneal epithelium was healed.
as §1, with “tissue” for “tissue of an area of 7 mm diameter in the middle”, “removed and a” for “removed after superficial anesthesia. A”, “FIG. 4,” for “FIG. 2,”
The epithelial tissue of the cornea was kept intact and a dextran solution of 200 g/L with 1.5 g/L EDTA sodium and 1.5 g/L riboflavin was dropped to corneal surface in batches. The location of the riboflavin diffused into the corneal surface was observed by cobalt blue light of a slit lamp. Digital corneal crosslinking device was used to selectively irradiate the local area of the cornea.

Compound: Cc1cc2nc3c(=O)[nH]c(=O)nc-3n(C[C@H](O)[C@H](O)[C@H](O)COP(=O)(O)O)c2cc1C [riboflavin sodium phosphate]
- corneal surface curvature (Example 2: epithelium removed (7 mm), dextran solution 200 g/L with 1 g/L riboflavin sodium phosphate, 365 nm, irradiation area as example 1, 1.2 mW/cm^2, 5 minutes): the same as example 1

Compound: Cc1cc2nc3c(=O)[nH]c(=O)nc-3n(C[C@H](O)[C@H](O)[C@H](O)CO)c2cc1C [riboflavin]
- corneal surface curvature (Example 1: epithelium removed (7 mm), dextran solution 200 g/L with 1 g/L riboflavin, 365 nm, irradiation area of FIG. 2, 1.2 mW/cm^2, 5 minutes): increased
- corneal curvature (Example 4: epithelium removed, dextran solution 200 g/L with 1 g/L riboflavin, 365 nm, irradiation area of FIG. 4, 1.2 mW/cm^2, 5 minutes): locally changed
- result (corneal surface curvature) (Example 5: epithelium kept intact, dextran solution 200 g/L with 1.5 g/L EDTA sodium and 1.5 g/L riboflavin, 365 nm, irradiation area as example 1, 1.2 mW/cm^2, 10 minutes): the same as example 1

Compound: O=C([O-])c1ccccc1-c1c2cc(Br)c(=O)c(Br)c-2oc2c(Br)c([O-])c(Br)cc12.[Na+].[Na+] [eosin Y]
- corneal surface curvature (Example 3: epithelium removed (5-9 mm), dextran solution 200 g/L with 1 g/L eosin Y, 550 nm, irradiation area of FIG. 3, 1.2 mW/cm^2, 5 minutes): decreased
